According to ChEMBL document CHEMBL5058564, “EUbOPEN Chemogenomics Library 2 (Incucyte)” (2022):

Assays:
Format in all cases: toxicity, cell-based
HEK-293T = assay: Incucyte cell viability with HEK293T; details: human, 10 µM, compound concentration 10 uM
U2OS = assay: Incucyte cell viability with U2OS; details: human, 10 µM, compound concentration 10 uM
Fibroblast = assay: Incucyte cell viability with human fibroblast; details: 10 µM, compound concentration 10 uM
[1] = 6 h, replicate number 1, timepoint 6 hours
[2] = 6 h, replicate number 2, timepoint 6 hours
[3] = 12 h, replicate number 1, timepoint 12 hours
[4] = 12 h, replicate number 2, timepoint 12 hours
[5] = 18 h, replicate number 1, timepoint 18 hours
[6] = 18 h, replicate number 2, timepoint 18 hours
[7] = 24 h, replicate number 1, timepoint 24 hours
[8] = 24 h, replicate number 2, timepoint 24 hours
[9] = 0 h, replicate number 2, timepoint 0 hours
[10] = 0 h, replicate number 1, timepoint 0 hours
Also: unitless GR value; below 1 slowed growth and below 0 cell loss.

SMILES	Growth Rate (HEK-293T; [1])	Growth Rate (HEK-293T; [2])	Growth Rate (HEK-293T; [3])	Growth Rate (HEK-293T; [4])	Growth Rate (HEK-293T; [5])	Growth Rate (HEK-293T; [7])	Growth Rate (HEK-293T; [8])	Growth Rate (U2OS; [9])	Growth Rate (U2OS; [3])	Growth Rate (Fibroblast; [1])	Growth Rate (Fibroblast; [2])	Growth Rate (Fibroblast; [3])	Growth Rate (Fibroblast; [4])	Growth Rate (Fibroblast; [5])	Growth Rate (Fibroblast; [6])	Growth Rate (Fibroblast; [7])	Growth Rate (Fibroblast; [8])	Growth Rate (U2OS; [10])	Growth Rate (U2OS; [5])	Growth Rate (U2OS; [7])	further results
N#Cc1c(Oc2cccc(OS(=O)(=O)CCCC(F)(F)F)c2)cccc1C(F)(F)F	-0.16	0.24	0	0.28	-0.01	0.06	0.55	0.57	0.86	-0.53	-0.47	-0.11	-0.08	-0.21	0.02	-0.18	0	–	–	–	Growth Rate (HEK-293T; [6]): 0.31; Growth Rate (U2OS; [4]): 0.82; Growth Rate (U2OS; [6]): 0.81; Growth Rate (U2OS; [8]): 0.96; Growth Rate (Fibroblast; [10]): 0.09
COc1cc(/C=C/C(=O)NCCn2c(C)cc3ccccc32)cc(OC)c1OC	0.24	0.36	0.61	0.51	0.69	0.75	0.76	-0.39	0.62	0.79	0.39	0.87	0.39	0.66	0.71	0.67	0.73	-0.71	0.51	0.75	Growth Rate (HEK-293T; [6]): 0.55; Growth Rate (U2OS; [1]): 0.34; Growth Rate (U2OS; [2]): 0.73; Growth Rate (Fibroblast; [10]): 0.86
CCCCCCCCCCCCC/C=C/[C@@H](O)[C@@H](N)COP(=O)(O)O	-0.22	-0.17	0.04	0.22	0.27	0.48	0.52	0.31	0.95	-0.68	-0.13	0.19	0.17	0.53	–	0.82	0.63	–	0.99	0.88	Growth Rate (U2OS; [6]): 0.89; Growth Rate (U2OS; [8]): 0.89
C[C@H](N)Cn1ccc2cc(F)c(Cl)cc21.O=C(O)/C=C/C(=O)O	0.52	–	0.55	–	0.67	0.66	–	0.24	0.57	0.43	0.72	0.49	0.81	0.6	0.9	0.6	0.79	-0.71	0.92	0.91	Growth Rate (U2OS; [1]): 0.36; Growth Rate (U2OS; [2]): 0.68
OCCCNc1cc(-c2ccnc(Nc3cccc(Cl)c3)n2)ccn1	-0.65	-0.7	-0.52	-0.62	-0.38	-0.29	-0.38	-0.28	0.44	-0.19	0.11	-0.15	-0.06	-0.2	-0.09	-0.02	-0.06	-0.27	0.26	0.23	Growth Rate (HEK-293T; [6]): -0.46; Growth Rate (U2OS; [1]): 0.44; Growth Rate (U2OS; [4]): 0.56; Growth Rate (U2OS; [6]): 0.36; Growth Rate (U2OS; [8]): 0.24; Growth Rate (Fibroblast; [10]): -0.42; Growth Rate (Fibroblast; [9]): -0.55
COc1cc(C(=O)N2CC[C@@H](O)[C@@H](N)C2)cc2nc(-c3cc4ccccc4n3CC3CC3)n(C)c12.Cl	0.71	–	0.85	–	0.88	0.77	–	0.15	–	-0.98	-0.57	-0.8	-0.18	-0.63	-0.01	-0.52	0.15	-0.04	–	–	Growth Rate (U2OS; [1]): 0.61; Growth Rate (U2OS; [4]): 0.98; Growth Rate (U2OS; [6]): 0.99
Br.Br.N=C(N)NCCSC(=N)N	0.74	–	0.76	0.86	0.98	1	0.81	0.56	0.88	0.23	0.98	0.19	–	0.54	–	0.49	–	-0.2	0.96	0.37	Growth Rate (HEK-293T; [6]): 0.92; Growth Rate (U2OS; [2]): 0.98; Growth Rate (U2OS; [4]): 0.99; Growth Rate (Fibroblast; [9]): 0.9
Cc1ccccc1C(=O)Nc1ccc(C(=O)N2CCCC(N(C)C)c3ccccc32)cc1.Cl (stereo not given)	-0.55	-0.44	-0.32	-0.03	-0.11	0.1	0.22	–	-0.03	-0.99	-0.65	-0.85	-0.38	-0.63	-0.1	-0.44	0.07	0.36	-0.06	-0.11	Growth Rate (HEK-293T; [6]): 0.08; Growth Rate (U2OS; [1]): 0.05; Growth Rate (U2OS; [2]): -0.11; Growth Rate (U2OS; [4]): -0.22; Growth Rate (U2OS; [6]): -0.09; Growth Rate (U2OS; [8]): -0.08
CC(C)Oc1ccc(Cc2ccc(NC3=NCCN3)cc2)cc1	-0.2	-0.01	0.03	0.1	0.16	0.24	0.21	0.45	0.74	0.07	-0.09	0.4	0.19	0.28	0.64	0.42	0.46	-0.1	0.82	0.84	Growth Rate (HEK-293T; [6]): 0.27; Growth Rate (U2OS; [1]): 0.26; Growth Rate (U2OS; [2]): 0.51; Growth Rate (U2OS; [4]): 0.75; Growth Rate (U2OS; [6]): 0.91; Growth Rate (U2OS; [8]): 0.95
